Test results published in patent US20250388529A1, “N-Substituted Phenylalkylamines and Their Use as Therapeutic Agents” (priority 2023, published 2025).

Legend:
5-HT2A [1] = biological target: T1, 5-HT2A (Homo sapiens, UniProt P28223); settings: [125I]-DOI competition binding; cited from earlier work
rat 5-HT2A receptors = rat 5-HT2A receptors (Rattus norvegicus, UniProt P14842); settings: [125I]-DOI competition binding; cited from earlier work
5-HT2A [2] = biological target: T1, 5-HT2A; settings: Ca2+ mobilization; cited from earlier work
5-HT2B = 5-HT2B (Homo sapiens, UniProt P41595); settings: Ca2+ mobilization; cited from earlier work
5-HT2A [3] = biological target: T1, 5-HT2A; settings: cited from earlier work
5-HT2A receptors = biological target: T2, 5-HT2A receptors (Rattus norvegicus, UniProt P14842); settings: Xenopus oocytes; cited from earlier work
T2 construct: host or cells: Xenopus oocytes (transient)

[4] = cited from earlier work
human Nav1.1 and Navβ1 = human Nav1.1 and Navβ1 (Homo sapiens, UniProt P35498); assay: cell-based

T1 sequence (P28223 whole entry): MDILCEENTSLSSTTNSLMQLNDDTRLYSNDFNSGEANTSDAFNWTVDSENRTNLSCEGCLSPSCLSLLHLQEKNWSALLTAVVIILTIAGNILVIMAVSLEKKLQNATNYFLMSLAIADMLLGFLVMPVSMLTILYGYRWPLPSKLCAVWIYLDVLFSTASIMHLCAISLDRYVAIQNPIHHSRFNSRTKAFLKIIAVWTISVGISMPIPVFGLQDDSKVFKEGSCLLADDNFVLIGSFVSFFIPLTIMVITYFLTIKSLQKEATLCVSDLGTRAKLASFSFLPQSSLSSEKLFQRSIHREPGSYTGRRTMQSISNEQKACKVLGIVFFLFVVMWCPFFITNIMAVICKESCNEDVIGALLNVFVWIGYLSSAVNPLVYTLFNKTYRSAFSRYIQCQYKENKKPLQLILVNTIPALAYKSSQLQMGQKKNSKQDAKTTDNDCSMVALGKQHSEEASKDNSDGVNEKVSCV
T2 sequence (P14842 whole entry): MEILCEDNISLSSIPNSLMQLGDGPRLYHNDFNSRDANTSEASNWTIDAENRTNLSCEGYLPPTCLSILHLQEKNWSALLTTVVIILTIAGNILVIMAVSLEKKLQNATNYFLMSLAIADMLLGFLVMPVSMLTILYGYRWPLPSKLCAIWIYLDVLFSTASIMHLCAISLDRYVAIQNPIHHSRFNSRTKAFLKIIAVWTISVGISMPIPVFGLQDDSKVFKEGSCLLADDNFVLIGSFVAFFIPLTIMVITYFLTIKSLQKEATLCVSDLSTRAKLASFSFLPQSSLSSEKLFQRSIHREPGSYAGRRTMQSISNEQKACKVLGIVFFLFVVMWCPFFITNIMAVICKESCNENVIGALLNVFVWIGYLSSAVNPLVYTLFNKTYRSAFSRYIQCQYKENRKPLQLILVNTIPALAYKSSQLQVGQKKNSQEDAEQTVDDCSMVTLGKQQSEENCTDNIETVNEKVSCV
rat 5-HT2A receptors, sequence (P14842 whole entry): as above
5-HT2B, sequence (P41595 whole entry): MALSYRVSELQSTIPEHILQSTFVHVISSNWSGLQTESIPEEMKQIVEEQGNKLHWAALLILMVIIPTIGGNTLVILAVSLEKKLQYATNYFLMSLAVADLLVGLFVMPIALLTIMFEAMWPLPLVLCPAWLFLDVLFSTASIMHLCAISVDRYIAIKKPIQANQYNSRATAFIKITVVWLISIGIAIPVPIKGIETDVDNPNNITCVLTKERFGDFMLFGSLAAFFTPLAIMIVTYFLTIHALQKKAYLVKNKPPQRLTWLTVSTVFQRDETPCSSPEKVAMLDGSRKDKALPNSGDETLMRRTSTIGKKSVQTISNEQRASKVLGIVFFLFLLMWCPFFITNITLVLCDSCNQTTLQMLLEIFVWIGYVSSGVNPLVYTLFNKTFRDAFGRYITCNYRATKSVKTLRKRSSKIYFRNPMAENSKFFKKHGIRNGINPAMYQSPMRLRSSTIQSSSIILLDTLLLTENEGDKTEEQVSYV

SMILES | Ki (5-HT2A [1]) [nM] | Ki (rat 5-HT2A receptors) [nM] | EC50 (5-HT2A [2]) [nM] | EC50 (5-HT2B) [nM] | functional activity at the 5-HT2A receptor (5-HT2A [3]) | functional activity in 5-HT2A-mediated inward current recordings (5-HT2A receptors) | oral activity (dose) [4] [mg] | Normalized Peak INa Inhibition (human Nav1.1 and Navβ1) | Peak INa Density (human Nav1.1 and Navβ1) [pA/pF] | Peak INa Density @ −20 mV (human Nav1.1 and Navβ1) [pA/pF] | reduction of baseline peak INa (human Nav1.1 and Navβ1) [%]
COc1cc(CCN)c(OC)cc1Br [2C-B] | 0.88 | 0.66 | 2.1 | 57 | partial agonist | antagonist | 12 to 24 | – | – | – | –
NC1=N[C@H](O)[C@H]2[C@H]3O[C@]4(O)O[C@@H]([C@@H](O)[C@@]2(N1)[C@@H]4O)[C@]3(O)CO [TTX, Tetrodotoxin, reference compound] | – | – | – | – | – | – | – | 0.870 ± 0.02 | −56.3 ± 9.4 | −15.84±2.16 | 87±2
